In US20090264471A1, “Compounds, Compositions and Methods Comprising Triazole Derivatives” (Institute for OneWorld Health, priority 2008, published 2009):

These molecules were tested against T1, CFTR (Homo sapiens, UniProt P13569) (assay: T84 assay (FLIPR membrane potential dye, forskolin/IBMX-stimulated CFTR channel activity)). Details: human colonic T84 cells, average of at least 2 runs unless annotated n = 1.
T1 construct: results in the phosphorylation and opening of CFTR anion channels; host or cells: Human colonic T84 cells
T1 sequence (P13569 whole entry): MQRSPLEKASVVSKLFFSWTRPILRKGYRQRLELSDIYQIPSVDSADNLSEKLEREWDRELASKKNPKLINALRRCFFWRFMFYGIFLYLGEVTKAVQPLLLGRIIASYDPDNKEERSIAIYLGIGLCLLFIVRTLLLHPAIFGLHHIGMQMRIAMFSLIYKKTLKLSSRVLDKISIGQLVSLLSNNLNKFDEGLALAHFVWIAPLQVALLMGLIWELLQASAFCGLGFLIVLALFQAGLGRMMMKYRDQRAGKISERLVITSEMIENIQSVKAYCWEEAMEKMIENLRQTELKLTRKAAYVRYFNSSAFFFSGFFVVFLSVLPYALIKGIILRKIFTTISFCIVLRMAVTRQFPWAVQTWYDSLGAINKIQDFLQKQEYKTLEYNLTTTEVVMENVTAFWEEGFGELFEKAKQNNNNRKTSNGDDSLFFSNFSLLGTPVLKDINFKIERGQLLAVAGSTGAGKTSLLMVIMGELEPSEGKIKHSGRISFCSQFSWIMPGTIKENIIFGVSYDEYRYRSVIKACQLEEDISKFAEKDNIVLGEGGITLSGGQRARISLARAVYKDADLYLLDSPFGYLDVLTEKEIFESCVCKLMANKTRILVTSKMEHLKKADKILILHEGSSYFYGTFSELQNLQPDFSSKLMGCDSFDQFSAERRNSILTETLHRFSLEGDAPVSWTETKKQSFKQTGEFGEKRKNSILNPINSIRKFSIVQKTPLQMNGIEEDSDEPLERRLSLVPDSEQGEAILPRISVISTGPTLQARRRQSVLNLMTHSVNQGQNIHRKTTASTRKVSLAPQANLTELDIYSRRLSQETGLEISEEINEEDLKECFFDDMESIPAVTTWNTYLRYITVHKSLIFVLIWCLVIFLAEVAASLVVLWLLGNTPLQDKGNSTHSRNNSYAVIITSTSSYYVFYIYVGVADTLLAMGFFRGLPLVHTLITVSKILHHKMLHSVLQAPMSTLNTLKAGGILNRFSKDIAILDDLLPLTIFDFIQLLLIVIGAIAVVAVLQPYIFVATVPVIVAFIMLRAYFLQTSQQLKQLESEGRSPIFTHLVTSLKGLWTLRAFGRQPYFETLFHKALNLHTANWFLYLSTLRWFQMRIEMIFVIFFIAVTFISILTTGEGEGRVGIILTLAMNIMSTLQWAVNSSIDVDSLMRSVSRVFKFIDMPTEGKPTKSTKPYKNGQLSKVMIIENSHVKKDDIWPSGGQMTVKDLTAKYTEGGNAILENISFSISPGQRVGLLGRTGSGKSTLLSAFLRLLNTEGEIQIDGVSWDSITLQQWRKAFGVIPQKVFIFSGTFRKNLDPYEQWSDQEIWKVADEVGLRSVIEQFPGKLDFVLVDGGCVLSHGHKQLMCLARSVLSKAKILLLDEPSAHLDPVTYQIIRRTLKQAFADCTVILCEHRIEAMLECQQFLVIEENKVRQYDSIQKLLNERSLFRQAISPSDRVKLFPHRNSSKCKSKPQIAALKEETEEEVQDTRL
Format: cell-based
Description: (§1) For example, Human colonic T84 cells can be acquired from the European Collection of Cell Cultures (ECACC) and grown in standard culture conditions as described by the supplier. On the day before assay 25,000 T84 cells per well are plated into standard black walled, clear bottom 384-well assay plates in standard growth medium consisting of DMEM:F12 with 10% FBS and incubated overnight. On the day of the assay the plates are washed using a standard assay buffer (HBSS with 10 mM Hepes) and incubated for 15 minutes in serum free cell culture medium before the addition of a commercially available membrane potential sensitive fluorescent dye (FLIPR Red membrane potential dye, Molecular Devices Corporation). T84 cells are incubated with the FLIPR Red membrane potential dye for 45 minutes in the presence and absence of test compound before being transferred to a commercially available fluorescence imaging plate reader (FLIPR384, Molecular Devices Corporation). Fluorescence levels are monitored continuously every second for 150 seconds; after an initial 10 second baseline, CFTR channel activity is stimulated through the addition of 10 μM forskolin in the presence of 100 μM of the phosphodiesterase inhibitor iso-butyl-methylxanthine (IBMX). Addition of the forskolin leads to the activation of intracellular adenylyl cylase 1, elevating cAMP levels and results in the phosphorylation and opening of CFTR anion channels. CFTR channel opening causes chloride ion efflux and subsequent depolarization of the cells, which is measured by an increase in fluorescence. CFTR inihibitor compounds prevent cell depolarization and the associated increase in fluorescence.
as §1, with “Human colonic” for “For example, Human colonic”, “T84 cells are acquired from” for “T84 cells can be acquired from”, “(ECACC) and are grown in” for “(ECACC) and grown in”, “fluorescence. CFTR inhibitor compounds prevent” for “fluorescence. CFTR inihibitor compounds prevent”

| Compound | IC50 [µM] |
| --- | --- |
| O=C(NCc1cccc(OC(F)(F)F)c1)c1n[nH]c(-c2cc(Cl)c(O)c(Cl)c2)n1 [Compound 86, 5-(3,5-dichloro-4-hydroxyphenyl)-N-(3-(trifluoromethoxy)benzyl)-1H-1,2,4-triazole-3-carboxamide] | 22.2 |
| O=C(c1nc(-c2cc(Br)c(O)c(Br)c2)n[nH]1)N1CCC(Cc2ccccc2)CC1 [Compound 80, (4-Benzylpiperidin-1-yl)(3-(3,5-dibromo-4-hydroxyphenyl)-1H-1,2,4-triazol-5-yl)methanone] | 10.5 |
| O=C(NCc1ccc(OC(F)(F)F)cc1)c1n[nH]c(-c2cc(Cl)c(O)c(Cl)c2)n1 [Compound 94, 5-(3,5-dichloro-4-hydroxyphenyl)-N-(4-(trifluoromethoxy)benzyl)-1H-1,2,4-triazole-3-carboxamide] | 9.11 |
| O=C(NCc1ccc(Oc2ccccc2)cc1)c1nc(-c2cc(Br)c(O)c(Br)c2)n[nH]1 [Compound 81, 3-(3,5-dibromo-4-hydroxyphenyl)-N-(4-phenoxybenzyl)-1H-1,2,4-triazole-5-carboxamide] | 1.51 |
| O=C(NCc1cc(Cl)cc(Cl)c1)c1n[nH]c(-c2cc(Cl)c(O)c(Cl)c2)n1 [Compound 97, 5-(3,5-dichloro-4-hydroxyphenyl)-N-(3,5-dichlorobenzyl)-1H-1,2,4-triazole-3-carboxamide] | 6.8 |
| CN(Cc1ccc(Cl)cc1)C(=O)c1n[nH]c(-c2cc(Cl)c(O)c(Cl)c2)n1 [Compound 93, N-(4-chlorobenzyl)-5-(3,5-dichloro-4-hydroxyphenyl)-N-methyl-1H-1,2,4-triazole-3-carboxamide] | 25 |
| O=C(NCc1ccc(C(F)(F)F)cc1)c1n[nH]c(-c2cc(Cl)c(O)c(Cl)c2)n1 [Compound 87, 5-(3,5-dichloro-4-hydroxyphenyl)-N-(4-(trifluoromethyl)benzyl)-1H-1,2,4-triazole-3-carboxamide] | 25.1 |
| O=C(NCc1cc(F)c(F)c(F)c1)c1n[nH]c(-c2cc(Cl)c(O)c(Cl)c2)n1 [Compound 89, 5-(3,5-dichloro-4-hydroxyphenyl)-N-(3,4,5-trifluorobenzyl)-1H-1,2,4-triazole-3-carboxamide] | 5.25 |
| O=C(NCc1ccc(Cl)c(Cl)c1)c1n[nH]c(-c2cc(Cl)c(O)c(Cl)c2)n1 [Compound 91, 5-(3,5-dichloro-4-hydroxyphenyl)-N-(3,4-dichlorobenzyl)-1H-1,2,4-triazole-3-carboxamide] | 1.57 |
| O=C(NCc1ccc(F)c(F)c1)c1n[nH]c(-c2cc(Cl)c(O)c(Cl)c2)n1 [Compound 84, 5-(3,5-dichloro-4-hydroxyphenyl)-N-(3,4-difluorobenzyl)-1H-1,2,4-triazole-3-carboxamide] | 15.6 |
| CN(Cc1cccc(C(F)(F)F)c1)C(=O)c1n[nH]c(-c2cc(Cl)c(O)c(Cl)c2)n1 [Compound 90, 5-(3,5-dichloro-4-hydroxyphenyl)-N-methyl-N-(3-(trifluoromethyl)benzyl)-1H-1,2,4-triazole-3-carboxamide] | 24.1 |
| O=C(c1n[nH]c(-c2cc(Cl)c(O)c(Cl)c2)n1)N1CCC(Cc2ccccc2)CC1 [Compound 82, (4-benzylpiperidin-1-yl)(5-(3,5-dichloro-4-hydroxyphenyl)-1H-1,2,4-triazol-3-yl)methanone] | 7.05 |
| O=C(NCc1ccc(Oc2ccccc2)cc1)c1n[nH]c(-c2cc(Cl)c(O)c(Cl)c2)n1 [Compound 92, 5-(3,5-dichloro-4-hydroxyphenyl)-N-(4-phenoxybenzyl)-1H-1,2,4-triazole-3-carboxamide] | 3.28 |
| O=C(NC(c1ccccc1)c1ccccc1)c1nc(-c2cc(Br)c(O)c(Br)c2)n[nH]1 [Compound 78, N-benzhydryl-3-(3,5-dibromo-4-hydroxyphenyl)-1H-1,2,4-triazole-5-carboxamide] | 3.23 |
| O=C(c1nc(-c2cc(Br)c(O)c(Br)c2)n[nH]1)N1CCN(c2cccc(C(F)(F)F)c2)CC1 [Compound 79, (3-(3,5-dibromo-4-hydroxyphenyl)-1H-1,2,4-triazol-5-yl)(4-(3-(trifluoromethyl)phenyl)piperazin-1-yl)methanone] | 6.93 |
| CN(Cc1ccc(Cl)c(Cl)c1)C(=O)c1n[nH]c(-c2cc(Cl)c(O)c(Cl)c2)n1 [Compound 95, 5-(3,5-Dichloro-4-hydroxyphenyl)-N-(3,4-dichlorobenzyl)-N-methyl-1H-1,2,4-triazole-3-carboxamide] | 7.92 |
| O=C(NCc1ccccc1C(F)(F)F)c1n[nH]c(-c2cc(Cl)c(O)c(Cl)c2)n1 [Compound 85, 5-(3,5-dichloro-4-hydroxyphenyl)-N-(2-(trifluoromethyl)benzyl)-1H-1,2,4-triazole-3-carboxamide] | 18 |
| CN(Cc1ccc(C(C)(C)C)cc1)C(=O)c1n[nH]c(-c2cc(Cl)c(O)c(Cl)c2)n1 [Compound 96, N-(4-tert-butylbenzyl)-5-(3,5-dichloro-4-hydroxyphenyl)-N-methyl-1H-1,2,4-triazole-3-carboxamide] | 7.53 |
| O=C(NC(c1ccccc1)c1ccccc1)c1n[nH]c(-c2cc(Cl)c(O)c(Cl)c2)n1 [Compound 88, N-benzhydryl-5-(3,5-dichloro-4-hydroxyphenyl)-1H-1,2,4-triazole-3-carboxamide] | 7.33 |
| O=C(c1n[nH]c(-c2cc(Cl)c(O)c(Cl)c2)n1)N1CCN(c2cccc(C(F)(F)F)c2)CC1 [Compound 83, (5-(3,5-dichloro-4-hydroxyphenyl)-1H-1,2,4-triazol-3-yl)(4-(3-(trifluoromethyl)phenyl)piperazin-1-yl)methanone] | 6.9 |
